Reference: US8426589B2, “Process for production of quinazoline derivative” (Shionogi & Co., Ltd., priority 2008, dated 2013)

Test: Stability test of the crystalline form (sealed glass vial, HPLC)
Type: physicochemical
Procedure: The crystalline form of the compound (IV) monohydrate was sealed in a glass vial and allowed it to stand for 20 days to determine the quality change before and after the test. Under heating at 50° C. (for 21 hr) or 80° C. (for 9 hr) were also conducted.
The quality degradation was not seen for the crystalline form of the compound (IV) monohydrate after 20 days and neither at 50° C. nor 80° C.
HPLC condition: Column Unison UK-C18 3 μm;
Mobile phase: 0.1% trifuluoroacetic acid aq. in acetnitrile;
Column temperature: 30° C.
Detector: UV spectrophotometer (254 nm)

- remaining ratio (HPLC, peak at Retention Time 10.2 min) (ca. 50° C., 15 h): 99.2
- remaining ratio (HPLC, peak at Retention Time 10.2 min) (ca. 50° C., 21 h): 99.1
- remaining ratio (HPLC, peak at Retention Time 10.2 min) (ca. 50° C., Control (before the test)): 99.4
- remaining ratio (HPLC, peak at Retention Time 10.2 min) (ca. 80° C., 3 h): 99.1
- remaining ratio (HPLC, peak at Retention Time 10.2 min) (ca. 80° C., 9 h): 99.1
- remaining ratio (HPLC, peak at Retention Time 10.2 min) (ca. 80° C., Control (before the test)): 99.1
- quality degradation (heating at 50° C. (for 21 hr)): not seen
- quality degradation (heating at 80° C. (for 9 hr)): not seen
- remaining ratio (HPLC, peak at Retention Time 10.2 min) (rt (ca. 22° C.), sealed in a glass vial, 20 days): 99.3
- remaining ratio (HPLC, peak at Retention Time 10.2 min) (rt (ca. 22° C.), sealed in a glass vial, Control (before the test)): 99.1
- quality degradation (sealed in a glass vial, after 20 days): not seen
Compound: CC#CC(=O)c1ccc2ncnc(Nc3ccc(OCc4cccc(F)c4)c(Cl)c3)c2c1 [compound (IV) monohydrate, 4-(3-chloro-4-(3-fluorobenzyloxy)phenylamino)-6-(1-oxo-2-butyn-1-yl)quinazoline]
